Reference: article PMC10758829 (Heliyon, 2023)

Assays:
[1] = biological target: dipeptidyl peptidase IV (DPP-IV) (Homo sapiens, UniProt P27487); test: Gly-Pro-pNA chromogenic assay with recombinant enzyme; format: biochemical
[2] = test system: NCC(=O)N1CCC[C@H]1C(=O)Nc1ccc([N+](=O)[O-])cc1; test: purified protein; format: biochemical, Homo sapiens

Sequence of dipeptidyl peptidase IV (DPP-IV) (P27487 39-766): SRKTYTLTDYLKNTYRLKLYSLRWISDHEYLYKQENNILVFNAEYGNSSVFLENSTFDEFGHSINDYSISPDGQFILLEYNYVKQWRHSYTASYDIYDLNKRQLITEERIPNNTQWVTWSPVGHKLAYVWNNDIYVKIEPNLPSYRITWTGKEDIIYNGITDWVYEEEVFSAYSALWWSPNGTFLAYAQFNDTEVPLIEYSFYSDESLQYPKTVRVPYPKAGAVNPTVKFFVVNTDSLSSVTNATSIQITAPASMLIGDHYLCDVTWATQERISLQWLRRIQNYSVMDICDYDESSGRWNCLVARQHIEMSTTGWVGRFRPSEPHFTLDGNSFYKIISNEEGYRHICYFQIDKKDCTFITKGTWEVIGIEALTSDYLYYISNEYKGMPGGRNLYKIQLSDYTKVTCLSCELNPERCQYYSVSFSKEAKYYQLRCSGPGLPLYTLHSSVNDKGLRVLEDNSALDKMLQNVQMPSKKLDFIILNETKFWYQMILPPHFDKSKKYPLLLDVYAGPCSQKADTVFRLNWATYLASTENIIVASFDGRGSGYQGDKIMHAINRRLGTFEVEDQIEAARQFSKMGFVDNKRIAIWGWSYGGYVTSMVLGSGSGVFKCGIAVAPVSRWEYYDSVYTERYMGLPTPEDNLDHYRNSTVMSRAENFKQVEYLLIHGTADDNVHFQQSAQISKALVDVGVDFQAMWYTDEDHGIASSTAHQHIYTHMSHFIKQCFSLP

Row | Compound | IC50 [1] | Vmax [2]
1 | CCCCCc1cc(O)c2c(c1)OC(C)(C)c1ccc(C)cc1-2 [CBN, cannabinol] | 12.9 µM | –
2 | dipeptidyl peptidase IV (DPP-IV) (Homo sapiens) | – | 1200 µM/min
3 | C=C(C)[C@@H]1CCC(C)=C[C@H]1c1c(O)cc(CCCCC)cc1O [CBD, cannabidiol] | 21.9 µM | –
4 | CCCCCc1cc(O)c(C/C=C(\C)CCC=C(C)C)c(O)c1 [CBG, cannabigerol] | 20.2 µM | –
